Columns and labels:
human plasma = experiment: Effect on coagulation in vitro (aPTT and PT), human plasma; conditions: final concentration 10NM (so in the source), n = 3
Text: aPTT reagent (purchased from Sysmex);
PT reagent (purchased from Sysmex);
The coagulation pathway includes the extrinsic coagulation pathway and the intrinsic coagulation pathway. The parameter associated with the extrinsic coagulation pathway is prothrombin time, expressed as PT; the parameter associated with the intrinsic coagulation pathway is activated partial thromboplatin time, expressed as aPTT.
After anticoagulation, blood of different species (rabbit, human) was subjected to centrifugation. The upper layer of plasma was collected and divided into several aliquots. The test compounds were added to make the final concentration of test compound to be 10NM. Incubation was conducted at 37° C. after mixed thoroughly. Then the samples were put into a coagulation analyzer (Sysmex CA1500, Sysmex, Japan) for the aPTT and PT assays. Blank plasma (without test compound) was used as a reference, and the ratio values of aPTT and PT of all samples and blank plasmas were analyzed, the results are shown in table 3.

[1] = Repeated dose toxicity study in SD rats, intravenous infusion, daily for 14 days; assay type: in vivo; conditions: rat, in vivo, daily for 14 days, SD rats, read-out: No-observed-adverse-effect level (NOAEL)
Procedure: The administration was repeated daily for 14 days, while clinical observation, body weight and food intake were recorded. […] Observation by gross anatomy and examination of histopathology were also conducted.

[2] = biological target: human coagulation factor Xa (Homo sapiens (Human), UniProt P00742); experiment: Determination of inhibition of factor Xa; assay type: biochemical
Procedure: Enzyme: human coagulation factor Xa; manufacturer: R&D System;
Substrate: Mca-RPKPVE-Nval-WRK(Dnp)-NH2; manufacturer: R&D;
The test compounds were dissolved in assay buffer (50 mM Tris, 150 mM NaCl, 10 mM CaCl2, 0.05% Brij35, pH 7.5) at a final concentration of 10 μM and 1 μM. Coagulation factor Xa and test compound were added to the well plate, and incubation was conducted at room temperature for 10 minutes after mixed thoroughly. The substrate (Mca-RPKPVE-Nval-WRK(Dnp)-NH2) was added to initiate the reaction. For reading fluorescence signal value, enzyme kinetic mode was used. The wavelength of excitation light was 320 nm, and the wavelength of emission light was 400 nm. The IC50 was calculated in a manner similar to experimental Example 1.

[3] = Pharmacokinetics study in Beagle dogs, intravenous injection; assay type: in vivo, Beagle dog
Procedure: Pharmacokinetics properties were examined by administering compound of the present disclosure and the reference compound (BMS-962212) to Beagle dog through intravenous injection (IV). Blood was collected at various time points after administration. The blood was anticoagulated with EDTA-K2. Plasma samples were obtained by centrifugation, and retained at −80° C. The plasma samples were processed to precipitate the proteins and then analyzed by LC-MS/MS.
The pharmacokinetic parameters were calculated using WinNonlin 6.3 software by employing a non-compartmental model.

Sequence of human coagulation factor Xa (P00742 whole entry, looked up): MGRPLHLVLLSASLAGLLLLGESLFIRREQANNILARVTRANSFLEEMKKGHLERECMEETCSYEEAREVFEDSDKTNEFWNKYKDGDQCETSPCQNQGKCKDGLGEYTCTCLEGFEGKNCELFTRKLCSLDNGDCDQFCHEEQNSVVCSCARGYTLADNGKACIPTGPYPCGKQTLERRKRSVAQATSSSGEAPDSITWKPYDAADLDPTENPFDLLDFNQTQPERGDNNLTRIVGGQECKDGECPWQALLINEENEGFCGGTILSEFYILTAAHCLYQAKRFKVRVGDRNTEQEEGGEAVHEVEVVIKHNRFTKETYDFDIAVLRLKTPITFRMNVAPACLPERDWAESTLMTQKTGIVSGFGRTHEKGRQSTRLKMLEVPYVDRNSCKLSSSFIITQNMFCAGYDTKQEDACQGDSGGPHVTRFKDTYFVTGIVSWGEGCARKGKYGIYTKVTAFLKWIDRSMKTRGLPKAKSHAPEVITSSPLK
Sequence of human coagulation factor Xa (P00742 whole entry, looked up): as above

Q: Which “Ratio of PT to that of blank plasma” value (human plasma) does the source give for `N[C@@H](CCCCNC(=O)CN1CC=C(c2cccc3c2CCN(C(=O)[C@H]2CC(c4cccc(Cl)c4F)=NO2)[C@@H]3C(=O)Nc2ccc(C(=O)O)cc2)CC1)C(=O)O` [Example 5, 4-((S)-5-(1-(2-(((S)-5-amino-5-carboxypentyl)amino)-2-oxoethyl)-1,2,3,6-tetrahydropyridin-4-yl)-2-((R)-3-(3-chloro-2-fluorophenyl)-4,5-dihydroisoxazole-5-carbonyl)-1,2,3,4-tetrahydroisoquinoline-1-carboxamido)benzoic acid] here?
A: 1.03

Q: And the “Ratio of aPTT to that of blank plasma” value (human plasma)?
A: 2.95

Q: What about the NOAEL at 14 days [1] of the same compound?
A: 60 mg/kg

Q: What about the “inhibitory effect on coagulation factor Xa (in words)” value [2] of the same compound?
A: no significant inhibitory effect

Q: And the IC50 ([2]; tested at final concentration of 10 μM and 1 μM)?
A: ~10 µM

Q: What about the “AUClast relative to that of the reference compound” value ([3]; 0.5 mg/kg each) of the same compound?
A: 20.38 times

Q: And the “Cmax relative to that of the reference compound” value ([3]; 0.5 mg/kg each)?
A: 2.67 times

Q: And the “T1/2 relative to that of the reference compound” value ([3]; 0.5 mg/kg each)?
A: 7.25 times

Q: And the AUC(0-inf) ([3]; dog, plasma, 0.5 mg/kg)?
A: 18100 ± 683 ng·h/mL

Q: What about the AUC(0-t) ([3]; dog, plasma, 0.5 mg/kg) of the same compound?
A: 17200 ± 370 ng·h/mL

Q: And the Cmax ([3]; dog, plasma, 0.5 mg/kg)?
A: 3950 ± 808 ng/mL

Q: What about the Vd ([3]; dog, plasma, 0.5 mg/kg) of the same compound?
A: 0.24 ± 0.02 L/kg

Q: And the clearance ([3]; dog, plasma, 0.5 mg/kg)?
A: 0.46 ± 0.02 mL/min/kg

Q: What about the half-life ([3]; dog, plasma, 0.5 mg/kg) of the same compound?
A: 6.02 ± 0.8 h

Q: What about the “apparent volume of distribution as share of that of the reference compound” value ([3]; same dosage 0.5 mg/kg) of the same compound?
A: 34%
